Experiments:
GLP-1 receptor [1] = molecular target: T1, GLP-1 receptor (Homo sapiens, UniProt P43220); test: GLP-1 activity (cAMP induction), CRE-luciferase reporter assay in HEK293 cells; type: cell-based; details: read-out: GLP-1 EC50; Example 22; HEK293 cells co-transfected with GLP-1 receptor and CRE-luciferase
T1 construct: expressed in transfected cells; host or cells: HEK293

[2] = Example 20: DIO mice, daily s.c. dosing; type: in vivo
ERα [3] = molecular target: T2, ERα (Homo sapiens, UniProt P03372); type: cell-based; design: T47D cells transfected with the luciferase gene fused to the estrogen response element (ERE); endogenous in cells; host or cells: T47D; details: T47D cells, ERE-luciferase
GLP-1 receptor [4] = molecular target: T1, GLP-1 receptor; test: GLP-1 binding, [I125]-GLP-1 SPA with receptor membrane extracts; details: read-out: GLP-1 IC50, Example 22, GLP-1 receptor cell membrane extracts
ERα [5] = molecular target: T2, ERα; details: read-out: ERα IC50; purified ERα, [I125]-estradiol
[6] = Stability analysis in human plasma (estrogen release); type: in vitro ADME; details: 1 mg/mL, 100% human plasma, pH 7.4, 37° C.
[7] = solubility in aqueous solution; type: physicochemical
glucagon receptor = molecular target: T3, glucagon receptor (Homo sapiens, UniProt P47871); test: glucagon antagonist activity, reduction of glucagon-induced cAMP production in an in vitro assay; type: cell-based; details: PLA at position 6 versus positions 4 and 5
T3 construct: expressed in transfected cells; host or cells: HEK293

GLP-1 receptor [8] = molecular target: T1, GLP-1 receptor; test: GLP-1 receptor activation, cAMP induction in HEK293 cells over-expressing the receptor (luciferase reporter); type: cell-based

T1 sequence (P43220 24-463, species assumed): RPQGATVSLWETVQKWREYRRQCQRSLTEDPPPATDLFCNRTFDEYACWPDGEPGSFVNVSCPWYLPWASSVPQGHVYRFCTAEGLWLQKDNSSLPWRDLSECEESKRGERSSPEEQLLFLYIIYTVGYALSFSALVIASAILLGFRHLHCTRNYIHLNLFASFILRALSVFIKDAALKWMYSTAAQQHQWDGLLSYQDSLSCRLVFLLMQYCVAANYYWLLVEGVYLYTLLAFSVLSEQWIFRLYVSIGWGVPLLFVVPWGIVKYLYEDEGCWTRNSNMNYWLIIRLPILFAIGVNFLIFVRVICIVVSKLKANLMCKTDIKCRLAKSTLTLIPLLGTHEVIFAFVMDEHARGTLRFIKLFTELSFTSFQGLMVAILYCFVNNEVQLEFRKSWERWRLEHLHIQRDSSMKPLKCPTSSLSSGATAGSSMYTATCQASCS
T2 sequence (P03372 whole entry, the tested form may be a part): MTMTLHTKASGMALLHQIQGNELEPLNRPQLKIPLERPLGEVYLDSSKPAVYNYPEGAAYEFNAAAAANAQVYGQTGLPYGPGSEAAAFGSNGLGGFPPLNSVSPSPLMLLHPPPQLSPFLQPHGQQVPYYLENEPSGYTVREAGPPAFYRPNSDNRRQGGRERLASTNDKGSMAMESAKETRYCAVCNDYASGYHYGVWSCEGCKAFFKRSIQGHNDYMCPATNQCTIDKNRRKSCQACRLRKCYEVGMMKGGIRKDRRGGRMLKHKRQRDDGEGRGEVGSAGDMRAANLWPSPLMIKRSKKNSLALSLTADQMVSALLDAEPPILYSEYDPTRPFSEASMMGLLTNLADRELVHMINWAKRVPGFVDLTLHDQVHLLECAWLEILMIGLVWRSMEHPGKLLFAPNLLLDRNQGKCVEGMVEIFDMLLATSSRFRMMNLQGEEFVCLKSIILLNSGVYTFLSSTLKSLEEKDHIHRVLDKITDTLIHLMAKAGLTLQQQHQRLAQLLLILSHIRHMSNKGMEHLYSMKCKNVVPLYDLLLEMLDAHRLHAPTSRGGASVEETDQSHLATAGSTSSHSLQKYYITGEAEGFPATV
T3 sequence (P47871 26-477): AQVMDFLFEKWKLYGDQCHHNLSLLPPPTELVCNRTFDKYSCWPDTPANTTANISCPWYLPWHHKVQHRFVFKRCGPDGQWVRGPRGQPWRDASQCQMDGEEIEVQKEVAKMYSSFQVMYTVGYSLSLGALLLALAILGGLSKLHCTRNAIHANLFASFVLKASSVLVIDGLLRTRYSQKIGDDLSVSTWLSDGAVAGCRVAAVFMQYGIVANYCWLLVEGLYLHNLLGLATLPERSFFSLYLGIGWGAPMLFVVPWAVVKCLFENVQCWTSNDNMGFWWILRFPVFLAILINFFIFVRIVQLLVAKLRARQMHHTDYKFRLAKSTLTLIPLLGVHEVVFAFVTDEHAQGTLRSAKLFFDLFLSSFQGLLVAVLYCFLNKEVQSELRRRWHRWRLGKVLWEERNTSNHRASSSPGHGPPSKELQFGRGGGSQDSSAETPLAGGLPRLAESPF

CC[C@H](C)[C@H](NC(=O)[C@H](Cc1ccccc1)NC(=O)[C@H](CCC(=O)O)NC(=O)[C@H](CCCCN)NC(=O)[C@H](C)NC(=O)[C@H](C)NC(=O)[C@H](CCC(N)=O)NC(=O)[C@H](CCC(=O)O)NC(=O)[C@H](CCC(=O)O)NC(=O)[C@H](CC(C)C)NC(=O)[C@H](Cc1ccc(O)cc1)NC(=O)[C@H](CO)NC(=O)[C@H](CO)NC(=O)[C@@H](NC(=O)[C@H](CC(=O)O)NC(=O)[C@H](CO)NC(=O)[C@@H](NC(=O)[C@H](Cc1ccccc1)NC(=O)[C@@H](NC(=O)CNC(=O)[C@H](CCC(=O)O)NC(=O)C(C)(C)NC(=O)[C@@H](N)Cc1c[nH]cn1)[C@@H](C)O)[C@@H](C)O)C(C)C)C(=O)N[C@@H](C)C(=O)N[C@@H](Cc1c[nH]c2ccccc12)C(=O)N[C@@H](CC(C)C)C(=O)N[C@H](C(=O)N[C@@H](CCCCN)C(=O)NCC(=O)NCC(=O)N1CCC[C@H]1C(=O)N[C@@H](CO)C(=O)N[C@@H](CO)C(=O)NCC(=O)N[C@@H](C)C(=O)N1CCC[C@H]1C(=O)N1CCC[C@H]1C(=O)N1CCC[C@H]1C(=O)N[C@@H](CO)C(=O)N[C@@H](CCCCNC(=O)CCC(=O)Oc1ccc2c(c1)CC[C@@H]1[C@@H]2CC[C@]2(C)[C@@H](OC(C)=O)CC[C@@H]12)C(N)=O)C(C)C [GLP-1/Estrogen(3-ester)]
EC50 (GLP-1 receptor [1]): 0.014 ± 0.001 nM
fat mass ([2]; FIG. 9b): least amount of fat mass
change in body weight ([2]; s.c. once per day, after 7 days): greatest decrease in body weight
EC50 (ERα [3]): 0.013 ± 0.001 nM
IC50 (GLP-1 receptor [4]): 0.627 ± 0.046 nM
IC50 (ERα [5]): 198 ± 16.8 nM

CC[C@H](C)[C@H](NC(=O)[C@H](Cc1ccccc1)NC(=O)[C@H](CCC(=O)O)NC(=O)[C@H](CCCCN)NC(=O)[C@H](C)NC(=O)[C@H](C)NC(=O)[C@H](CCC(N)=O)NC(=O)[C@H](CCC(=O)O)NC(=O)[C@H](CCC(=O)O)NC(=O)[C@H](CC(C)C)NC(=O)[C@H](Cc1ccc(O)cc1)NC(=O)[C@H](CO)NC(=O)[C@H](CO)NC(=O)[C@@H](NC(=O)[C@H](CC(=O)O)NC(=O)[C@H](CO)NC(=O)[C@@H](NC(=O)[C@H](Cc1ccccc1)NC(=O)[C@@H](NC(=O)CNC(=O)[C@H](CCC(=O)O)NC(=O)C(C)(C)NC(=O)[C@@H](N)Cc1c[nH]cn1)[C@@H](C)O)[C@@H](C)O)C(C)C)C(=O)N[C@@H](C)C(=O)N[C@@H](Cc1c[nH]c2ccccc12)C(=O)N[C@@H](CC(C)C)C(=O)N[C@H](C(=O)N[C@@H](CCCCN)C(=O)NCC(=O)NCC(=O)N1CCC[C@H]1C(=O)N[C@@H](CO)C(=O)N[C@@H](CO)C(=O)NCC(=O)N[C@@H](C)C(=O)N1CCC[C@H]1C(=O)N1CCC[C@H]1C(=O)N1CCC[C@H]1C(=O)N[C@@H](CO)C(=O)N[C@@H](CCCCNC(=O)COc1ccc2c(c1)CC[C@@H]1[C@@H]2CC[C@]2(C)[C@@H](O)CC[C@@H]12)C(N)=O)C(C)C [GLP-1/Estrogen(3-ether)]
estrogen release in plasma [6]: no estrogen release over 72 hours

CSCC[C@H](NC(=O)[C@H](CC(C)C)NC(=O)[C@H](Cc1c[nH]c2ccccc12)NC(=O)[C@H](CCC(N)=O)NC(=O)[C@@H](NC(=O)[C@H](Cc1ccccc1)NC(=O)[C@H](CC(=O)O)NC(=O)[C@H](CCC(N)=O)NC(=O)[C@H](C)NC(=O)[C@H](CCCN=C(N)N)NC(=O)[C@H](CCCN=C(N)N)NC(=O)[C@H](CO)NC(=O)[C@H](CC(=O)O)NC(=O)[C@H](CC(C)C)NC(=O)[C@H](Cc1ccc(O)cc1)NC(=O)[C@H](CCCCN)NC(=O)[C@H](CO)NC(=O)[C@H](Cc1ccc(O)cc1)NC(=O)[C@H](CC(=O)O)NC(=O)[C@H](CO)NC(=O)[C@@H](NC(=O)[C@H](Cc1ccccc1)NC(=O)[C@@H](NC(=O)CNC(=O)[C@H](CCC(N)=O)NC(=O)[C@H](CO)NC(=O)[C@@H](N)Cc1c[nH]cn1)[C@@H](C)O)[C@@H](C)O)C(C)C)C(=O)N[C@@H](CC(N)=O)C(=O)N[C@H](C(=O)O)[C@@H](C)O [Glucagon]
solubility in aqueous solution [7]: poor solubility in aqueous solution, particularly at physiological pH

PLA6 analog: glucagon peptide, first 5 amino acids removed from the N-terminus, remaining N-terminal amino group replaced with a hydroxyl group
glucagon antagonist potency (glucagon receptor): appreciably more potent antagonist than glucagon analogs having a slightly extended N-terminus

SEQ ID NO: 22: glucagon analog in which the native glutamine at position 3 is substituted with glutamic acid
selectivity for the GLP-1 receptor over the glucagon receptor (GLP-1 receptor [8]): approximately a tenfold selectivity for the GLP-1 receptor

Reference: patent US9783592B2 (priority 2010, dated 2017)
